Assay results from ChEMBL document CHEMBL1862790, “Optimisation of fenarimol series for the treatment of Chagas disease”.

Experiments:
Trypanosoma cruzi [1] = test: microbe, parasite or virus in culture; type: functional, organism-based, Tulahuen LacZ, Clone C4
L6 = test: (§1) DNDI: Cytotoxicity against L-6 rat myoblasts from skeletal muscle cells; details: L6 rat skeletal muscle myoblast cells
Trypanosoma cruzi [2] = test: microbe, parasite or virus in culture; type: functional, Tulahuen LacZ, Clone C4
[3] = as §1; details: L6 rat skeletal muscle myoblast cells
[4] = Trypanosoma cruzi, Tulahuen LacZ, Clone C4

Row | Structure (SMILES) | IC50 (Trypanosoma cruzi [1]; [4]) [nM] | IC50 (L6) [nM] | IC90 (Trypanosoma cruzi [2]; [4]) [nM] | IC50 (Trypanosoma cruzi [1]) [nM] | IC90 (Trypanosoma cruzi [2]) [nM] | IC50 ([3]; IC50) [nM] | IC50 [3] [nM]
1 | OC(c1ccc(Cl)cc1)(c1cccnc1)c1cccc(C(F)(F)F)c1 (stereo unspecified) | 67 | 60400 | 162 |  |  |  | 
2 | O=C(Nc1ccccc1)N1CCN(C(c2ccc(Cl)cc2)c2cccnc2)CC1 (stereo unspecified) | 9 | 67200 | 34 |  |  |  | 
3 | CC(C)(C)OC(=O)N1CCN(C(c2ccc(C(F)(F)F)cc2)c2cccnc2)CC1 (stereo unspecified) | 17 | 56200 | 54 |  |  |  | 
4 | CC(C)Oc1ncc(C(O)(c2cccnc2)c2ccc(Cl)cc2F)cn1 (stereo unspecified) | 7.7 | 89500 | > 10 |  |  |  | 
5 | Clc1ccc(C(c2cccnc2)N2CCN(c3ccccc3)CC2)cc1 (stereo unspecified) | 34 | 67400 | 84 |  |  |  | 
6 | O=S(=O)(c1ccccc1)N1CCN(C(c2ccc(Cl)cc2)c2cccnc2)CC1 (stereo unspecified) | 8.5 | 42700 | 39 |  |  |  | 
7 | CC(C)(C)C(=O)N1CCN(C(c2cccnc2)c2ccc(Cl)cc2F)CC1 (stereo unspecified) | 19 | 60300 | 88 |  |  |  | 
8 | CC(C)(C)C(=O)N1CCN(C(c2cccnc2)c2ccc(C(F)(F)F)cc2F)CC1 (stereo unspecified) | 23.5 | 72900 | 68.5 |  |  |  | 
9 | O=C(Nc1ccccc1)N1CCN(C(c2cccnc2)c2ccc(Cl)cc2F)CC1 (stereo unspecified) | 6.2 | 45100 | 24 |  |  |  | 
10 | COc1ccccc1N1CCN(C(c2ccc(C(F)(F)F)cc2)c2cnccn2)CC1 (stereo unspecified) | 240 | 61700 | 420 |  |  |  | 
11 | CC(C)C(=O)Nc1ncc(C(O)(c2ccc(Cl)cc2)c2cccnc2)s1 (stereo unspecified) | 17 | 56600 | 88 |  |  |  | 
12 | Clc1ccc(C(c2cccnc2)c2ccccc2Cl)cc1 (stereo unspecified) | 230 | 62600 | 2570 |  |  |  | 
13 | COc1ccccc1N1CCN(C(c2ccc(Cl)cc2)c2cccnc2)CC1 (stereo unspecified) | 20 | 61100 | 42 |  |  |  | 
14 | CC(C)c1ccc(NC(=O)N2CCN(C(c3cncnc3)c3ccc(Cl)cc3F)CC2)cc1 (stereo unspecified) | 6.5 | 61900 | 16 |  |  |  | 
15 | OC(c1ccc(Cl)cc1)(c1ccc(Cl)cc1)c1cncnc1 | 224 | 47700 |  |  |  |  | 
16 | O=C(Oc1ccccc1)N1CCN(C(c2cccnc2)c2ccc(Cl)cc2F)CC1 (stereo unspecified) | 4.5 | 59100 | 12 |  |  |  | 
17 | Cc1noc(N2CCN(C(c3cccnc3)c3ccc(C(F)(F)F)cc3F)CC2)n1 (stereo unspecified) | 16.5 | 51200 | 33 |  |  |  | 
18 | O=S(=O)(C1CCCCC1)N1CCN(C(c2ccc(Cl)cc2)c2cccnc2)CC1 (stereo unspecified) | 10 | 55800 | 35 |  |  |  | 
19 | COc1ccccc1N1CCN(C(c2cncnc2)c2ccc(Cl)cc2F)CC1 (stereo unspecified) | 65 | 59800 | 190 |  |  |  | 

Row | Structure (SMILES) | IC50 (Trypanosoma cruzi [1]; [4]) [nM] | IC50 (L6) [nM] | IC90 (Trypanosoma cruzi [2]; [4]) [nM] | IC50 (Trypanosoma cruzi [1]) [nM] | IC90 (Trypanosoma cruzi [2]) [nM] | IC50 ([3]; IC50) [nM] | IC50 [3] [nM]
20 | Fc1cc(Cl)ccc1C(c1cccnc1)N1CCN(c2ncccn2)CC1 (stereo unspecified) | 26 | 59000 | 92 |  |  |  | 
21 | CS(=O)(=O)N1CCN(C(c2cccnc2)c2ccc(C(F)(F)F)cc2F)CC1 (stereo unspecified) | 27.5 | 76800 | 82.5 |  |  |  | 
22 | CC(C)(C)C(=O)N1CCN(C(c2ccc(C(F)(F)F)cc2)c2cccnc2)CC1 (stereo unspecified) | 30 | 58600 | 127 |  |  |  | 
23 | CC(C)Oc1ccc(C(O)(c2ccc(OC(C)C)cc2)c2cccnc2)cc1 | 16 | 61400 | 25 |  |  |  | 
24 | CC(C)Oc1ccc(C(O)(c2ccc(C(F)(F)F)cc2)c2cccnc2)cc1 (stereo unspecified) | 3.73 | 47600 | 7 |  |  |  | 
25 | OC(c1ccc(Cl)cc1)(c1ccc(Br)cc1)c1cccnc1 (stereo unspecified) | 31 | 57000 | 79 |  |  |  | 
26 | OC(c1ccc(Cl)cc1)(c1ccc(Cl)cc1)c1cccnc1 | 90 | 49000 | 27000 |  |  |  | 
27 | Cc1ccc(C(O)(c2ccc(Cl)cc2)c2cccnc2)cc1 (stereo unspecified) | 17 | 61200 | 60 |  |  |  | 
28 | O=C(Nc1ccc(Cl)cc1)N1CCN(C(c2cncnc2)c2ccc(Cl)cc2F)CC1 (stereo unspecified) | 10 | 33600 | 30 |  |  |  | 
29 | Cc1ccc(C(O)(c2ccc(OC(C)C)cc2)c2cccnc2)c(F)c1 (stereo unspecified) | 3.2 | 62600 | 13 |  |  |  | 
30 | OC(c1ccc(Cl)cc1)(c1ccc(Br)cc1)c1cncnc1 (stereo unspecified) | 144 | 58700 | 460 |  |  |  | 
31 | FC(F)(F)c1ccc(C(NC2CCN(c3nccs3)CC2)c2cccnc2)cc1 (stereo unspecified) [listing 1 of 2 here] |  | 54900 |  | 9.5 | 29 |  | 
32 | OC(c1cccnc1)(c1ccc(Cl)cc1F)c1ccc(Cl)cc1F | 16 | 56300 | 36 |  |  |  | 
33 | OC(c1ccc(Cl)cc1)(c1cccnc1)c1ccccc1C(F)(F)F (stereo unspecified) | 122 | 59200 |  |  |  |  | 
34 | N#CC(c1ccc(Cl)cc1)c1ccccn1 (stereo unspecified) | > 1000 |  | > 1000 |  |  | > 100000 | 
35 | Cc1ccc(-c2c(Cl)nc(C#N)n2S(=O)(=O)N(C)C)cc1 [Cyazofamid] | 47200 |  | > 100000 |  |  |  | 74000
36 | CCC(=O)NC1CCN(C(c2cnccn2)c2ccc(F)cc2F)CC1 (stereo unspecified) | > 1000 |  | > 1000 |  |  | > 100000 | 
37 | O=S(=O)(NC(c1ccc(C(F)(F)F)cc1)c1cnccn1)c1ccc(C(F)(F)F)cc1 (stereo unspecified) | > 1000 |  | > 1000 |  |  | 59900 | 
38 | CS(=O)(=O)NC1CCN(C(c2ccc(Cl)cc2)c2cncnc2)CC1 (stereo unspecified) | 630 |  | > 1000 |  |  | > 100000 | 

Row | Structure (SMILES) | IC50 (Trypanosoma cruzi [1]; [4]) [nM] | IC50 (L6) [nM] | IC90 (Trypanosoma cruzi [2]; [4]) [nM] | IC50 (Trypanosoma cruzi [1]) [nM] | IC90 (Trypanosoma cruzi [2]) [nM] | IC50 ([3]; IC50) [nM] | IC50 [3] [nM]
39 | CCCCC(NCC1CCCCC1)c1cccnc1 (stereo unspecified) | 450 |  | 700 |  |  | > 100000 | 
40 | O=C(C1CC1)N1CCN(C(c2cccnc2)c2ccc(Cl)cc2F)CC1 (stereo unspecified) | 26 |  | 82 |  |  | > 100000 | 
41 | O=S(=O)(NC1CCN(C(c2cnccn2)c2ccc(F)cc2F)CC1)c1ccc(Cl)cc1 (stereo unspecified) | > 1000 |  | > 1000 |  |  | 34300 | 
42 | O=S(=O)(c1ccc(C(F)(F)F)cc1)N1CCC(NC(c2cnccn2)c2ccc(F)cc2F)CC1 (stereo unspecified) | 360 |  | 820 |  |  | 62700 | 
43 | Cc1cnc(C(O)(c2ccc(Cl)cc2)c2ccc(C(F)(F)F)cc2)cn1 (stereo unspecified) | > 1000 |  | > 1000 |  |  | 61600 | 
44 | N#Cc1ccc(C(c2cccnc2)N2CCC(NC(=O)c3ccc(F)cc3C(F)(F)F)CC2)cc1 (stereo unspecified) | 6.87 |  | 29.6 |  |  | 78500 | 
45 | OC(c1ccc(Cl)cc1)(c1cncnc1)c1cccs1 (stereo unspecified) | 70 |  | 76000 |  |  | > 100000 | 
46 | CCCCC(O)(c1ccc(Cl)cc1)c1cnccn1 (stereo unspecified) | 330 |  | 3000 |  |  | > 100000 | 
47 | CC(c1ccccc1)N1CCC(NC(c2cccnc2)c2ccc(Cl)cc2F)CC1 (stereo unspecified) | 314 |  | 597 |  |  | 19100 | 
48 | CC(C)c1ccc(C(O)(c2ccc(C(F)(F)F)cc2)c2cncnc2)cc1 (stereo unspecified) | 4.5 |  | 20 |  |  | 56500 | 
49 | COc1nc(C)nc(NC(=O)NS(=O)(=O)c2ccccc2Cl)n1 [CHLORSULFURON] | 45000 |  | 100000 |  |  |  | > 100000
50 | O=C(Cc1ccccc1)N1CCC(NC(c2cnccn2)c2ccc(F)cc2F)CC1 (stereo unspecified) | 360 |  | 820 |  |  | > 100000 | 
51 | CCC(=O)N1CCC(NC(c2cnccn2)c2ccc(F)cc2F)CC1 (stereo unspecified) | > 1000 |  | > 1000 |  |  | > 100000 | 
52 | FC(F)(F)c1ccc(C(NC2CCN(c3nccs3)CC2)c2cccnc2)cc1 (stereo unspecified) [listing 2 of 2 here] | 5.5 |  |  |  | 420 | 56400 | 
53 | O=S(=O)(Cc1ccccc1)N1CCC(NC(c2cnccn2)c2ccc(F)cc2F)CC1 (stereo unspecified) | 190 |  | 400 |  |  | > 100000 | 
54 | CC(C)(C)OC(=O)N1CCN(C(c2cccnc2)c2ccc(C#N)cc2F)CC1 (stereo unspecified) | 532 |  | 940 |  |  | > 100000 | 
55 | COc1ccc(N2CCC(NC(c3cccnc3)c3ccc(Cl)cc3F)CC2)cc1F (stereo unspecified) | 7.3 |  | 22 |  |  | 47900 | 
56 | Cc1nc(C(=O)NC2CCN(C(c3ccc(C(F)(F)F)cc3)c3cccnc3)CC2)co1 (stereo unspecified) | 19.5 |  | 44 |  |  | 56400 | 
